Assay results taken from patent US7566724B2, “Glycine derivative and use thereof” (Toray Industries, Inc., priority 2004, dated 2009).

What was measured:
[1] = tested on: leukotriene B4 production by neutrophils; assay: Measurement of Inhibitory Effect on Inflammatory Mediator Production by Leukocytes (ionomycin-induced leukotriene B4 in neutrophils); type: cell-based; settings: 0.5 h, human neutrophil suspension, 37° C. 30 minutes, EIA
Description: A mixture of human peripheral blood and physiological saline containing 3% dextran was left to stand for 30 minutes and then the upper layer was recovered. The upper layer was overlaid on Histopaque 1077 (SIGMA), and the resultant was centrifuged at 1400 rpm for 30 minutes. The supernatant was removed by aspiration and a buffer was added to the precipitate to prepare a neutrophil suspension (4×10^5 cells/mL). To the neutrophil suspension, ionomycin was added and the mixture was incubated at 37° C. for 30 minutes, followed by quantification of leukotriene B4 by EIA (Amersham, Biotrak EIA system). Each test compound was added to the neutrophil suspension before adding ionomycin. In Table 19, the IC50 of each compound is shown.

[2] = tested on: Jurkat cells; assay: Measurement of Inhibitory Effect on Leukocyte Functions (adhesion of Jurkat cells to ligand-expressing cells or ligand-immobilized plate); type: cell-based; settings: Homo sapiens, 0.5 h; fluorescently labelled Jurkat cells, ligand-expressing cells or ligand-immobilized plate, 37° C. 30 minutes; read-out: IC50 (adhesion of Jurkat cells)
Description: Jurkat cells which are a cell line originated from human acute T cell lymphoma were allowed to react with BCECF-AM at 37° C. for 20 minutes to fluorescently label the cells. The fluorescently labelled Jurkat cells were allowed to react with ligand-expressing cells or with a ligand-immobilized plate at 37° C. for 30 minutes. After removing non-adherent cells by washing, 1% NP40 was added to lyse the adherent cells, and fluorescence intensity was measured with Cytoflow 2300 (Millipore). From the obtained fluorescence intensity, the number of adherent cells was calculated. Each test compound was reacted with the Jurkat cells before the beginning of the adhesion reaction. In Table 18, the IC50 of each compound is shown.

[3] = Pharmacokinetic Evaluation in Rats; type: in vivo; settings: rat, male SD rats, administered orally or intravenously, plasma up to 8 hours, LC/MS/MS; for bioavailability: oral, read-out: BA(%) (bioavailability); for clearance: read-out: CLtot (total clearance) (converted)
Description: Each compound was dissolved at a concentration of 0.5 mg/ml in PBS or in PBS containing 10% PEG. The compound was administered orally or intravenously to male SD rats (7 to 9 weeks old). Blood was collected from the tail vein at time points up to 8 hours after the administration, and blood plasma was collected by centrifugation from each obtained blood. The blood plasma was pretreated by using the solid-phase extraction method, and the concentration of the compound was analyzed with LC/MS/MS (ESI negative mode).
As the Comparative Compound, 2-[4-((3,5-dichlorobenzensulfonylamino)methyl)benzoylamino]-5-(4-(methyl-pyrimidin-2-ylamino)phenyl)pento-4-ene acid (XXI) described in WO 99/26923 was used.
[“BA” in Table 17 means bioavailability, and “CLtot” means total clearance.]

[4] = tested on: DSS-induced colitis; assay: Dextran Sulfate Sodium (DSS)-induced Colitis Model of Mice (1); type: in vivo, Female BALB/c mice; settings: 3 w/v % DSS for 8 days, scored at day 8
Description: Female BALB/c mice (Charles River, Japan) of 7 to 9 weeks old were allowed to freely drink 3 w/v % dextran sulfate sodium (DSS) for 8 days to induce colitis. The non-induced (background) group was allowed to freely drink sterilized distilled water. The compound described in Example 28 was orally administered to the mice at a dose of 5 mg/kg, and the compounds described in Example 4, Example 22 and Example 78 were orally administered to the mice at a dose of 15 mg/kg every day. At day 8 from the beginning of the drinking, stool consistency was scored (0: normal stool, 2: loose stool, 4: diarrhea) by using the method described by Murthy et al (see, for example, Dig Dis Sci., 38, 1722 (1993)).

[5] = tested on: DSS-induced colitis; assay: Dextran Sulfate Sodium (DSS)-induced Colitis Model of mice (2); type: in vivo, Female BALB/c mice; settings: orally 5 mg/kg every day from Day 27 to Day 31; DSS 5 to 7 days then water 5 days, repeated 3 times
Description: Female BALB/c mice (Charles River, Japan) of 7 to 9 weeks old were allowed to freely drink 3 w/v % dextran sulfate sodium (DSS) for 5 to 7 days, and then to freely drink sterilized distilled water for 5 days. The procedure was repeated 3 times to induce colitis. The non-induced (background) group was allowed to freely drink sterilized distilled water. The compounds described in Examples 81 and 84 were orally administered to the mice at a dose of 5 mg/kg, respectively, every day from Day 27 to Day 31 after from the beginning of the drinking, and stool consistency was scored (0: normal stool, 2: loose stool, 4: diarrhea) by using the method described by Murthy et al (see, for example, Dig Dis Sci., 38, 1722 (1993).

IC50 [1] | IC50 [2] | bioavailability [3] | clearance [3] | SMILES | rate of amelioration (stool consistency score) ([4]; orally 15 mg/kg every day) | rate of amelioration (stool consistency score) ([4]; orally 5 mg/kg every day) | rate of amelioration (stool consistency score) [5]
– | 0.082 µM | 52.1% | 1.02 L/h/kg | CN(c1ccc(/C=C/C[C@H](NC(=O)c2c(Cl)cccc2Cl)C(=O)[O-])cc1)c1ncccn1.[Na+] [Example 81, (S,E)-2-(2,6-Dichlorobenzamido)-5-[4-(methyl-pyrimidin-2-ylamino)phenyl]pent-4-enoic acid sodium salt] | – | – | 68.8%
– | 0.03 µM | – | – | CC(C)N(c1ccc(/C=C/C[C@H](NC(=O)c2c(Cl)cccc2Cl)C(=O)[O-])cc1)c1ncccn1.[Na+] [Example 84, (S,E)-2-(2,6-Dichlorobenzamido)-5-[4-(isopropyl-pyrimidin-2-ylamino)phenyl]pent-4-enoic acid sodium salt] | – | – | 82.4%
– | 0.054 µM | – | – | COC1(c2ccc(/C=C/C[C@H](NC(=O)c3c(Cl)cccc3Cl)C(=O)[O-])cc2)CCOCC1.[Na+] [Example 78, (S,E)-2-(2,6-Dichlorobenzamido)-5-[4-(4-methoxytetrahydropyran-4-yl)-phenyl]pent-4-enoic acid sodium salt] | 40% | – | –

The next lines start with the compound.

SMILES | IC50 [1] | IC50 [2] | bioavailability [3] | clearance [3] | rate of amelioration (stool consistency score) ([4]; orally 15 mg/kg every day) | rate of amelioration (stool consistency score) ([4]; orally 5 mg/kg every day) | rate of amelioration (stool consistency score) [5]
CN(c1ccc(/C=C/CC(NC(=O)c2c(Cl)cccc2Cl)C(=O)O)cc1)c1ncccn1 (centres unmarked) [Example 22, (E)-2-(2,6-Dichlorobenzamido)-5-[4-(methyl-pyrimidin-2-ylamino)phenyl]pent-4-enoic acid] | 176 µM | 0.16 µM | 61.7% | 0.306 L/h/kg | 67% | – | –
COC1(c2ccc(/C=C/CC(NC(=O)c3c(Cl)cccc3Cl)C(=O)O)cc2)CCOCC1 (centres unmarked) [Example 4, (E)-2-(2,6-Dichlorobenzamido)-5-[4-(4-methoxytetrahydropyran-4-yl)-phenyl]pent-4-enoic acid] | 52.3 µM | 0.247 µM | 55% | 0.607 L/h/kg | 44% | – | –
CC(C)N(c1ccc(/C=C/CC(NC(=O)c2c(Cl)cccc2Cl)C(=O)O)cc1)c1ncccn1 (centres unmarked) [Example 28, (E)-2-(2,6-Dichlorobenzamido)-5-[4-(isopropyl-pyrimidin-2-ylamino)phenyl]pent-4-enoic acid] | 7.4 µM | 0.056 µM | 80.6% | 0.895 L/h/kg | – | 71% | –
